Several values for one entry are separate records, joined by “and”; a condition that tells them apart may be missing. Equal values may be shown once. Read-outs that look alike come from different tables or passages of the source.

These results are taken from patent publication US8173840B2, “Compounds with high therapeutic index” (Signature R&D Holdings, LLC, priority 2003, dated 2012).

One data set has as its system Swiss Albino Mice. Description: 28-day chronic toxicity study of ibuprofen esters. Particulars: 28 days.
For data set [1], the system named is male albino mice (Swiss strain). Description: Acetylcholine induced abdominal constriction (writhe) method. The data set is classed as in vivo, mouse. Particulars: for Number of animals showing absence of single writhe (number of animals per dose = 10), One hour after dosing / Number of animals showing absence of single writhe (number of animals per dose = 10), Three hours after dosing: gavage. How it is done: Ibuprofen (racemic mixture) and ibuprofen (S)-(+) served as reference controls.
The study was conducted at two dose levels viz. 50 mg and 100 mg/kg body weight along with a vehicle control group. At each dose level 10 animals were used. All the doses were expressed as ibuprofen molar equivalents. The doses used as well as the molar equivalents are presented below.
The efficacy in terms of antagonizing effect on acetylcholine induced single writhe at two dose levels—50.0 and 100.0 mg/kg for the three formulations and reference controls are presented below.

Data set [2] relates to fasted male albino rats (Wistar strain). Put plainly: Gastric mucosa irritation of acetylsalicylic acid esters. The format is in vivo, rat. Conditions: two doses, 100 and 200 mg/kg. How it is done:
Aspirin served as a reference control. […] All the doses were expressed as aspirin molar equivalents. The doses used as well as the molar equivalents are presented below. The rats were fasted for a period of 18 to 22 hours before dosing. The test item was administered as a single dose by gavage. Three hours after drug administration, the animals were killed humanely by CO2 gas inhalation. The stomach was dissected out and observed for • the quantity of mucous exudate, • degree of hyperemia and thickening of stomach wall, • hemorrhagic spots (focal or diffuse), nature of hemorrhages (petechial or ecchymotic) along with the size and • perforations

Data set [3] relates to rats. Put plainly: Clotting time in rats, different date, time intervals and doses (Table 24). The data set is classed as in vivo, rat. The source says: The following additional data were obtained, when the same drugs were compared in rats on a different date with different time intervals and doses: […]
The next data set has as its system albino rats. Put plainly: Blood clotting time in albino rats, one hour after dosing. The format is in vivo, rat. Conditions: for Mean Clotting Time (±S.D.), Low Dose: 1.0 mg/kg as aspirin; for Mean Clotting Time (±S.D.), Intermediate Dose: 4.0 mg/kg as aspirin; for Mean Clotting Time (±S.D.), High Dose: 10.0 mg/kg as aspirin; for effectiveness with respect to clotting time: one hour after administration. How it is done:
The data on the mean clotting time (MCT) of the animals of low, intermediate and high dose groups of different formulations, vehicle control and positive control groups estimated one hour after dosing were presented below (Table 19):
Aspirin served as positive control. The study was conducted at three dose levels with the new formulations and positive control along with a vehicle control group.
The doses for the main study were selected based on the dose range finding experiments with acetylsalicylic acid. All the doses were expressed as aspirin molar equivalents. The doses used are presented below.

A further data set has as its system Male albino rats. Description: Blood clotting time in albino rats, 2 hours after dosing. Particulars: for Mean Clotting Time (± S.D.): 20 mg/kg as aspirin, 2 hours (±10 minutes) after dosing. The data set is classed as in vivo, rat. How it is done: Aspirin served as positive control. Male albino rats were exposed to aspirin and to 3 new formulations of amino acid derivatives of aspirin derivatives at one dose level of 20 mg/kg body weight. […]. The doses were expressed as aspirin molar equivalents.
The efficacy in terms of time required for the blood clotting time at the dose level of 20 mg/kg body weight for different formulations of amino acid derivatives of aspirin and aspirin (positive control) are presented below:
The data on the mean clotting time (MCT) of the animals, estimated 2 hours (±10 minutes) after dosing, at the dose level of 20 mg/kg body weight for the formulations of aspirin derivatives, vehicle control and positive control are presented below

In data set [4] the test system is rats. Description: Hypolipidemic property, blood triglycerides in rats on high sugar diet. The format is in vivo, rat. Particulars: for Triglycerides, Day 7 / Triglycerides, Day zero / Triglycerides, Day 14: individual animals, hydrochloride; for Triglycerides, Day 7: after 1 week high sugar diet, before drug; for Triglycerides, Day zero: before diet and drug; for Triglycerides, Day 14: drug day 7-14. How it is done: Rats were checked for time zero triglyceride level in blood. Then the rats were set on high sugar diet, such as 30% sucrose in water for 1 week. Then at the end of 1 week, rats were tested for triglycerides, and were put on normal diet. From day 7-14 the rats were administered either test or control drug. Triglycerides were again tested on the 14th day in rat blood.

Data set [5] has as its system albino mice (Swiss strain). Put plainly: 14 day repeated dose toxicity study, intravenous route, propofol esters.
Experimental: by conducting a 14 day repeated dose toxicity study through intravenous route using albino mice as test system.
Propofol and its derivatives above were administered to albino mice (Swiss strain), through intravenous route daily for a period of 14 days using sterile sodium chloride solution as vehicle. The study was conducted at one dose level only along with a vehicle control group as per the recommendation of the Sponsor.
The doses were selected as per the recommendation of the Sponsor. The test doses are expressed as Propofol molar equivalents.
Another data set concerns albino mouse. Description: Anesthetic effect in male albino mice, righting reflex as index. Particulars: low, intermediate, high dose.
For data set [6], the system named is laboratory mice. Particulars: for Mean DAI: DSS coupled with drug from day 1, 10 mice per group.
Experimental: Percent animal body weight loss, stool consistency and occult blood at the end of the study will be taken into consideration to calculate Disease Activity Index (“DAI”) of each animal. The following scoring system outlined in Table 30 was for the percent body weight loss, stool consistency and occult blood:
The scores for each parameter for each mouse at the end of study are added together and divided by three (number of observations) to determine DAI. The mean group DAI is the determined. A score of 3 was assigned for any animal that died during the testing.
In this study, DSS administration is coupled with administration of either test or reference drug from day 1.
Data set [7] has as its system laboratory mice. Put plainly: DSS induced ulcerative colitis in mice, disease treatment study (Disease Activity Index). The format is in vivo, mouse. Conditions: for Mean DAI: treatment started after colitis symptoms, mean of 10 mice. The source says:
The mean group DAI is the determined.
Much more dramatic results were obtained when the mice were initially treated with DSS to induce colitis. Once clear symptoms of colitis were seen, DSS was replaced by drinking water, and treatment started with test and reference drugs, including vehicle control. All results are mean of 10 mice.

Setting [8] is: 50.0 mg/kg in terms of Ibuprofen.
Where [9] appears, read: 100.0 mg/kg in terms of Ibuprofen.

Text for Swiss Albino Mice: Randomization was done by the method of stratified randomization procedure using SAS software program (Version 8.2) with stratification by bodyweight.
The duration of dosing was 28 days. All the animals were daily tested until the end of the study for the presence/absence of clinical symptoms of toxicity. Cage side observations included changes in the skin, eyes, posture, gait, respiration and behavior pattern. The incidence of twitching, tremors, convulsions, salivation, diarrhea and death if any, were also recorded.
Text for albino mouse: However the doses of low, intermediate and high for different formulations and reference control were different.
The different doses for each formulation and reference control were selected based on the recommendation of Sponsor. All the doses were expressed as propofol molar equivalents.

Turning to `CC(C)Cc1ccc(C(C)C(=O)O[C@H]2CN[C@H](C(=O)O)C2)cc1` (mixture of isomers) [(±)-Ibuprofen-L-hydroxyproline ester, 4(R)-[2-(4-Isobutyl-phenyl)-propionyloxy]-pyrrolidine-2(S)-carboxylic acid] [listing 1 of 2 here], the “No of animals survived” value in the data set on Swiss Albino Mice (10 animals per group) is recorded as 9. The animals that died in the data set with Swiss Albino Mice (both sexes) is on record as 10%. In the data set on Swiss Albino Mice (Female), the Mortality is given as 1/5. In addition, the Mortality result in the data set on Swiss Albino Mice (Male) is recorded as “Nil”. Besides, in the data set with Swiss Albino Mice (surviving animals), the “Average Change In body Weight” value is 1.43 gms and the “Percentage Change of body weight” value was found to be 5.75%.

Take `CC(C)Cc1ccc(C(C)C(=O)OC[C@H](N)C(=O)O)cc1.Cl` (mixture of isomers) [(±)-Ibuprofen-L-serine ester, 2(S)-Amino-3-[2(R,S)-(4-isobutylphenyl)-propionyloxy]-propionic acid, hydrochloride]: in data set [1] (setting [8]), the “Number of animals showing absence of single writhe (number of animals per dose = 10), One hour after dosing” value came to 4 and the “Number of animals showing absence of single writhe (number of animals per dose = 10), Three hours after dosing” value came to 2. In [1] (setting [9]), the “Number of animals showing absence of single writhe (number of animals per dose = 10), One hour after dosing” value is given as 6 and the “Number of animals showing absence of single writhe (number of animals per dose = 10), Three hours after dosing” value was 4.

In the case of `CC(C)Cc1ccc(C(C)C(=O)O[C@H]2CN[C@H](C(=O)O)C2)cc1` (mixture of isomers) [(±)-Ibuprofen-L-hydroxyproline ester, 4(R)-[2-(4-Isobutyl-phenyl)-propionyloxy]-pyrrolidine-2(S)-carboxylic acid] [listing 2 of 2 here], in data set [1] (setting [8]), the “Number of animals showing absence of single writhe (number of animals per dose = 10), One hour after dosing” value was 5 and the “Number of animals showing absence of single writhe (number of animals per dose = 10), Three hours after dosing” value is given as 4. Further, in data set [1] (setting [9]), the “Number of animals showing absence of single writhe (number of animals per dose = 10), One hour after dosing” value is 7 and the “Number of animals showing absence of single writhe (number of animals per dose = 10), Three hours after dosing” value turned out to be 7. In addition, the “antagonizing the acetylcholine induced writhe, clinical observation” value in [1] (compared to other formulations, Ibuprofen (racemic) and Ibuprofen (S)-(+)) is listed as “more effective in antagonizing the acetylcholine induced writhe”.

Regarding `CC(=O)Oc1ccccc1C(=O)OC1CN[C@H](C(=O)O)C1` (stereo partly drawn) [2-O-Acetylsalicylic Acid (2S,4R)-4-hydroxyproline Ester], the “esters inducing evidence of irritation of gastric mucosa” value in data set [2] was “none”. The “Clotting Time” value in the data set on rats [3] (10 mg/kg 1 hr) is given as 7.5 min. Besides, the “Clotting Time” value in the data set on rats [3] (10 mg/kg 24 hr) is 3.3 min. In addition, the “Clotting Time” value with rats [3] (20 mg/kg 2 hr) was determined as 4.2 min. Also, in the data set with albino rats (one hour after dosing), the “Mean Clotting Time (±S.D.), Low Dose” value turned out to be 6.1 ± 1.10 min; the “Mean Clotting Time (±S.D.), Intermediate Dose” value was 5.7 ± 0.82 min; the “Mean Clotting Time (±S.D.), High Dose” value stood at 7.5 ± 1.18 min; the “statistical analysis of mean clotting time vs vehicle control” value was “significant improvement at 5% significance level in the efficacy for the high dose and low dose”. The “effectiveness with respect to clotting time” value in the data set with albino rats is “as effective as acetylsalicylic acid”. For the same molecule, the “Mean Clotting Time (± S.D.)” value in the data set with Male albino rats was 4.2 ± 1.32 min. The “mean blood clotting time with respect to positive control (statistics)” value in the data set with Male albino rats (after two hours) was “no significant difference at 5% significance level”.

Consider `CC(C)Cc1ccc([C@H](C)C(=O)O)cc1` [Ibuprofen (S)-(+), reference compound], for which, in data set [1] (setting [8]), the “Number of animals showing absence of single writhe (number of animals per dose = 10), One hour after dosing” value came out at 5 and the “Number of animals showing absence of single writhe (number of animals per dose = 10), Three hours after dosing” value turned out to be 1. Also, in data set [1] (setting [9]), the “Number of animals showing absence of single writhe (number of animals per dose = 10), One hour after dosing” value is 6 and the “Number of animals showing absence of single writhe (number of animals per dose = 10), Three hours after dosing” value was found to be 6.

`CC(C)(Oc1ccc(C(=O)c2ccc(Cl)cc2)cc1)C(=O)OC[C@H](N)C(=O)O.Cl` [L-Serine Ester of Fenofibric Acid, L-serine-fenofibric acid ester, hydrochloride]: the “Triglycerides, Day 7” value is 148 mg/dL and 145 mg/dL and 127 mg/dL in the data set on rats [4] (50 mg/kg group); 100 mg/dL and 183 mg/dL with rats [4] (100 mg/kg group); 240 mg/dL and 158 mg/dL and 77 mg/dL with rats [4] (200 mg/kg group). Also, the “Triglycerides, Day zero” value in the data set on rats [4] (50 mg/kg group) was 88 mg/dL and 94 mg/dL and 100 mg/dL; with rats [4] (100 mg/kg group) it was 109 mg/dL and 129 mg/dL and 71 mg/dL; with rats [4] (200 mg/kg group), 74 mg/dL and 81 mg/dL and 42 mg/dL. The “Triglycerides, Day 14” value was 86 mg/dl (2×) and 73 mg/dl in the data set on rats [4] (50 mg/kg); 46 mg/dL and 69 mg/dL and 47 mg/dL with rats [4] (100 mg/kg); 83 mg/dL and 61 mg/dL and 46 mg/dL with rats [4] (200 mg/kg). Besides, the “% Change From day 0” value is −61.64% in the data set with rats [4] (Dose 25 mg/kg), −44.10% in the data set with rats [4] (Dose 50 mg/kg) and −33.23% with rats [4] (Dose 100 mg/kg). Further, the “% Change from day 7” value was −72.82% in the data set on rats [4] (Dose 25 mg/kg), −67.90% in the data set on rats [4] (Dose 50 mg/kg) and −63.27% in the data set with rats [4] (Dose 100 mg/kg). Besides, the “Absolute Change from day 0” value in the data set on rats [4] (Dose 25 mg/kg) is −54; in the data set on rats [4] (Dose 50 mg/kg), −31.4; in the data set on rats [4] (Dose 100 mg/kg), −20.8. The “Absolute Change from day 7” value was −90 in the data set with rats [4] (Dose 25 mg/kg), −84.2 with rats [4] (Dose 50 mg/kg) and −72 in the data set on rats [4] (Dose 100 mg/kg).

For `CC(=O)Oc1ccccc1C(=O)OC[C@H](N)C(=O)O` [L-serine ester of acetylsalicylic acid, 2-O-Acetylsalicylic Acid (2S)-(+)-serine Ester], the “esters inducing evidence of irritation of gastric mucosa” value in [2] was “none”. Besides, the “Clotting Time” value stood at 6.9 min with rats [3] (10 mg/kg 1 hr), 4.4 min in the data set with rats [3] (10 mg/kg 24 hr) and 3.8 min in the data set on rats [3] (20 mg/kg 2 hr). For the same molecule, the “Mean Clotting Time (±S.D.), Low Dose” value in the data set on albino rats (one hour after dosing) amounted to 5.7 ± 1.34 min. For the same molecule, in the data set with albino rats (one hour after dosing), the “Mean Clotting Time (±S.D.), Intermediate Dose” value was determined as 6.8 ± 1.48 min. For the same molecule, in the data set on albino rats (one hour after dosing), the “Mean Clotting Time (±S.D.), High Dose” value was found to be 6.9 ± 1.37 min. Besides, the “effectiveness with respect to clotting time” value in the data set on albino rats is “as effective as acetylsalicylic acid”. In the data set on Male albino rats, the “Mean Clotting Time (± S.D.)” value is 3.8 ± 0.92 min.

Take `CC(C)c1cccc(C(C)C)c1O` [Propofol injection, 2,6-diisopropylphenol, reference compound]: in [5] (14 days), the feed intake result was “normal and comparable to that of vehicle control group”. The “animals exhibiting clinical symptoms of toxicity” value in data set [5] (IV daily 14 days) is reported as “None of the animals”. Moreover, in [5] (IV daily 14 days, compared to vehicle control), the “body weight gain” value was “normal and comparable to that of vehicle control group of animals”. Besides, in the data set with albino mouse, the “dose response relation (statistical analysis)” value was “statistically significant and clearly evident”.

Regarding “Cyclosporine A N-(L-lysine)-glycine ester, dihydrochloride trihydrate [Cyclosporine-GL]”, the results for the “Mean DAI” value in the data set on laboratory mice [6] and in the data set on laboratory mice [7] were 1.100 and 0.532, respectively.

In the case of “Cyclosporine A N-(L-proline)-glycine ester, hydrochloride [Cyclosporine-GP]”, the “performance in the model” value in the data set with laboratory mice [6] (DSS coupled with drug from day 1) is listed as “statistically significant performance compared to Cyclosporine A”. The “Mean DAI” value came out at 1.062 in the data set with laboratory mice [6] and 0.066 in the data set on laboratory mice [7]. Further, the “statistical result vs Cyclosporine reference drug” value in the data set with laboratory mice [7] (treatment study) was “statistically significant results”.
